Measurements from US20180251425A1, “2,3,5 TRISUBSTITUTED PYRROLE DERIVATIVES AS TOPOISOMERASE INHIBITORS AND THERAPEUTIC USES THEREOF” (UNIVERSITY OF MYSORE, priority 2015, published 2018).

Assays:
Format in all cases: cell-based
Molt4 = assay: Cytotoxicity (MTT / trypan blue) in Molt4 cells; settings: Homo sapiens, MOLT-4, read-out: Cytotoxicity IC 50 in μM (Cell lines) Molt4
Protocol: (§1) Human cancer cell lines, K562, MCF7, HeLa and HEK 293T were purchased from National Centre for Cell Science, Pune, India. Cells were grown in RPMI 1640/MEM/DMEM supplemented with 10% heat-inactivated fetal bovine serum (FBS), 100 U/mL of Penicillin, and 100 μg of streptomycin/mL and incubated at 37° C. in a humidified atmosphere containing 5% CO2.
(§2) Nalm6, Molt4 and Reh cells were provided by Dr. Sathees C. Raghavan, Department of Biochemistry, IISc, Bangalore. The cells were grown under the similar culture conditions as mentioned above.
(§3) The human T cell leukemia cell line Molt4, Human acute lymphoblastic leukemia (ALL) cell line Nalm6, Human acute myelocytic leukemia (AML) cell line Reh, chronic myelogenous leukemia (CML) cell line K562, Human breast adenocarcinoma cell lines like MCF7 and human kidney cell line HEK 293T (Human embryonic kidney cell line) were selected for the purpose of preliminary anticancer screening of newly synthesized compounds (ASR1 to ASR15). To check the cytotoxicity, trypan blue dye exclusion assays, MTT assay were employed as described earlier Further, Cell cycle analysis, Mitochondrial membrane potential, Annexin-V FITC staining assay were also performed in order to understand the mode of cell death after treatment with ASR6. Further, ASR6 was also tested for its ability to inhibit topoisomerase I and II activity in vitro.
(§4) Cytotoxic effect of the newly synthesized compounds against leukemic cells was assessed using 3-(4, 5-dimethyl-2-yl02, 5-diphenyl tetrazolium bromide (MTT) assay. After exposure of compound at different concentration (0.01, 0.1, 0.5, 1, 10, 50 and 100 μM) cells were harvested and transferred into 96 well plate, MTT (5 mg/ml) was added and incubate at 37° C. for 4 h and formazan crystals were dissolved by adding solubilizing agent (10% SDS and 50% dimethyl formamide) for 1 h, finally plate was read at 570 nm (Bio-Rad, USA). Results were represented as inhibition of percentage of cell proliferation in bar diagram (n=3) (FIGS. 1 A, C, E and G).
(§5) To determine the growth inhibitory activity of the drug, 0.5×10^5 cell/ml were plated in 24 well (Biofil, USA.) in 1 ml of complete medium and treated with various concentration of the compound to test, cells were stained with 0.4% trypan blue and counted on a hemocytometer after treatment with compounds at 48 and 72 h time point. Results were represented as number of viable cells/ml in bar diagram (FIGS. 1 B, D, F, and H) (n=3).

Nalm6 = assay: Cytotoxicity (MTT / trypan blue) in Nalm6 cells; settings: Homo sapiens, NALM-6, read-out: Cytotoxicity IC 50 in μM (Cell lines) Nalm6
Protocol: as §1, §2, §3, §4, §5

Reh = assay: Cytotoxicity (MTT / trypan blue) in Reh cells; settings: Homo sapiens, read-out: Cytotoxicity IC 50 in μM (Cell lines) Reh
Protocol: as §1, §2, §3, §4, §5

K562 = assay: Cytotoxicity (MTT / trypan blue) in K562 cells; settings: Homo sapiens, read-out: Cytotoxicity IC 50 in μM (Cell lines) K562
Protocol: as §1, §3, §4, §5

MCF7 = assay: Cytotoxicity in MCF7 cells; settings: Homo sapiens, read-out: Cytotoxicity IC 50 in μM (Cell lines) MCF7
Protocol: as §1, §3, §4, §5

HeLa = assay: Cytotoxicity in HeLa cells; settings: Homo sapiens, read-out: Cytotoxicity IC 50 in μM (Cell lines) HeLa
Protocol: as §1
as §4, with “G). […]” for “G).”

| SMILES | IC50 (Molt4) | IC50 (Nalm6) | IC50 (Reh) | IC50 (K562) | IC50 (MCF7) | IC50 (HeLa) |
| --- | --- | --- | --- | --- | --- | --- |
| CCOC(=O)c1[nH]c(-c2ccc(C)cc2)cc1-c1ccc(C#N)cc1 [ASR5, Ethyl 3-(4-cyanophenyl)-5-p-tolyl-1H-pyrrole-2-carboxylate] | > 50 µM | > 50 µM | > 100 µM | > 100 µM | > 100 µM | > 100 µM |
| CCOC(=O)c1[nH]c(-c2ccc(Cl)cc2)cc1-c1ccc2ccccc2c1 [ASR7, Ethyl 5-(4-chlorophenyl)-3-(naphthalen-2-yl)-1H-pyrrole-2-carboxylate] | 30.8 µM | > 50 µM | > 100 µM | > 100 µM | > 100 µM | > 100 µM |
| COC(=O)c1[nH]c(-c2cccc(OC)c2)cc1-c1ccc(C(F)(F)F)cc1 [ASR11, Methyl 5-(3-methoxyphenyl)-3-(4-(trifluoromethyl)phenyl)-1H-pyrrole-2-carboxylate] | 17 µM | 9.53 µM | > 100 µM | > 100 µM | > 100 µM | > 100 µM |
| CCOC(=O)c1[nH]c(-c2cc(OC)c(OC)c(OC)c2)cc1-c1cccs1 [ASR14, Ethyl 3-(thiophen-2-yl)-5-(3,4,5-trimethoxyphenyl)-1H-pyrrole-2-carboxylate] | 15.2 µM | 10.5 µM | > 100 µM | > 100 µM | > 100 µM | > 100 µM |
| CCOC(=O)c1[nH]c(-c2cccs2)cc1-c1cccs1 [ASR8, Ethyl 3,5-di(thiophen-2-yl)-1H-pyrrole-2-carboxylate] | 35.3 µM | > 50 µM | > 100 µM | > 100 µM | > 100 µM | > 100 µM |
| CCOC(=O)c1[nH]c(-c2ccc(OC)c(OC)c2)cc1-c1ccc(C(F)(F)F)cc1 [ASR10, Ethyl 5-(3,4-dimethoxyphenyl)-3-(4-(trifluoromethyl)phenyl)-1H-pyrrole-2-carboxylate] | 7.96 µM | 20 µM | > 100 µM | > 100 µM | > 100 µM | > 100 µM |
| CCOC(=O)c1[nH]c(-c2ccc(OC)cc2)cc1-c1ccco1 [ASR3, Ethyl 3-(furan-2-yl)-5-(4-methoxyphenyl)-1H-pyrrole-2-carboxylate] | > 50 µM | > 50 µM | > 100 µM | > 100 µM | > 100 µM | > 100 µM |
| CCOC(=O)c1[nH]c(-c2ccc(C)cc2)cc1-c1cccc([N+](=O)[O-])c1 [ASR4, Ethyl 3-(3-nitrophenyl)-5-p-tolyl-1H-pyrrole-2-carboxylate] | > 50 µM | > 50 µM | > 100 µM | > 100 µM | > 100 µM | > 100 µM |
| CCOC(=O)c1[nH]c(-c2ccc(OC)c(OC)c2)cc1-c1ccncc1 [ASR12, Ethyl 5-(3,4-dimethoxyphenyl)-3-(pyridin-4-yl)-1H-pyrrole-2-carboxylate] | 26.1 µM | 14.3 µM | > 100 µM | > 100 µM | > 100 µM | > 100 µM |
| CCOC(=O)c1[nH]c(-c2ccc(OC)cc2)cc1-c1cccc(C)c1 [ASR2, Ethyl 5-(4-methoxyphenyl)-3-m-tolyl-1H-pyrrole-2-carboxylate] | > 50 µM | > 50 µM | > 100 µM | > 100 µM | > 100 µM | > 100 µM |
| COC(=O)c1[nH]c(-c2ccc(C)cc2)cc1-c1cccc([N+](=O)[O-])c1 [ASR13, Methyl 3-(3-nitrophenyl)-5-p-tolyl-1H-pyrrole-2-carboxylate] | 8.84 µM | 11 µM | > 100 µM | > 100 µM | > 100 µM | > 100 µM |
| CCOC(=O)c1[nH]c(-c2cccs2)cc1-c1ccc(Br)cc1 [ASR9, Ethyl 3-(4-bromophenyl)-5-(thiophen-2-yl)-1H-pyrrole-2-carboxylate] | 50 µM | > 50 µM | > 100 µM | > 100 µM | > 100 µM | > 100 µM |
| CCOC(=O)c1[nH]c(-c2ccccc2)cc1-c1ccccc1 [ASR1, Ethyl 3,5-diphenyl-1H-pyrrole-2-carboxylate] | > 50 µM | > 50 µM | > 100 µM | > 100 µM | > 100 µM | > 100 µM |
| CCOC(=O)c1[nH]c(-c2cccc(OC)c2)cc1-c1ccncc1 [ASR15, Ethyl 5-(3-methoxyphenyl)-3-(pyridin-4-yl)-1H-pyrrole-2-carboxylate] | 12.9 µM | 5.4 µM | > 100 µM | > 100 µM | > 100 µM | > 100 µM |
